How the values were obtained:
[1] = system: PLS10 cells; experiment: Cell cycle analysis (Guava cycle assay); assay type: cell-based, rat; settings: 48 h
Procedure: Cells were treated with Cur (0–20 μM) and DZG (0–200 μM) for 48 h. Cells were harvested for analysis of the cell cycle distribution by the Guava cycle (a,b), while cyclin D1 expression was determined by Western blot analysis (c,d). The level of protein expression was quantified by IMAGE J software. Data are presented as mean ± S.D. of three independent experiments. * p < 0.05 and ** p < 0.01 vs. control (one-way ANOVA, Dunnett’s multiple comparisons test, tested groups vs. control group). TEXT PRINTED IN THE PICTURE: (a) Cur: G1: 39.76±7.07 (Cur (μM): 5); S: 15.20±2.22 (Cur (μM): 5); G2/M: 45.02±8.26 (Cur (μM): 5); G1: 43.45±4.60 (Cur (μM): 10); S: 15.45±1.20 (Cur (μM): 10); G2/M: 40.90±6.08 (Cur (μM): 10); G1: 41.00±2.40 (Cur (μM): 15); S: 16.35±2.05 (Cur (μM): 15); G2/M: 42.60±4.67 (Cur (μM): 15); G1: 46.28±4.32 (Cur (μM): 20); S: 13.68±2.05 (Cur (μM): 20); G2/M: 43.10±5.50 (Cur (μM): 20) | (b) DZG: G1: 36.75±0.35 (DZG (μM): 50); S: 16.30±0.71 (DZG (μM): 50); G2/M: 46.95±0.35 (DZG (μM): 50); G1: 36.73±3.41 (DZG (μM): 100); S: 17.17±1.29 (DZG (μM): 100); G2/M: 46.10±2.78 (DZG (μM): 100); G1: 42.88±7.45 (DZG (μM): 150); S: 17.90±1.82 (DZG (μM): 150); G2/M: 39.25±6.13 (DZG (μM): 150); G1: 52.95±7.52 (DZG (μM): 200); S: 16.23±1.02 (DZG (μM): 200); G2/M: 31.00±6.67 (DZG (μM): 200) DOUBTS OF THE COPYIST ABOUT THIS PICTURE: Control columns (panel a: G1: 38.86±4.93, S: 14.52±1.90, G2/M: 46.60±5.74; panel b: G1: 35.93±2.45, S: 15.90±2.11, G2/M: 48.18±2.51) are printed but left out of lines, as Control is not a substance
The PLS10 cells (1.0 × 10^5 cells per well) were plated into a 6-well plate overnight. Then, cells were treated with increasing concentrations of Cur (0–20 µM) or DZG (0–200 µM) in the present of 0.5% DMSO (vehicle control) for the next 48 h. Cell morphology was investigated and photographed under a microscope. The cell cycle distribution was determined using a Guava cycle assay (Guava Technologies, Hayward, CA, USA) according to the manufacturer’s protocols. Briefly, the cells were removed by trypsinization, and the cell suspension was fixed in ice-cold 70% methanol at −20°C. After that, the methanol was removed, and the cells were washed with PBS before being stained with a Guava cycle reagent for 30 min. Cell cycle distribution was determined on a Guava PCA Instrument using Guava®ViacountTM Software (Merck Ltd., Darmstadt, Germany).

[2] = system: PLS10 cells xenograft; experiment: In vivo antitumor activity, PLS10 cells xenograft model; design: species or system male BALB/c-nu/nu mice; settings: for Body Weights at the end of the experiment / Organ Weights, Kidneys / Organ Weights, Livers: mean ± S.E.; for Ki67-labeling index in tumor sections: control 63; for tumor volume: control 96 cm^3; for CD31-positive areas in tumors (angiogenesis): vs control, p < 0.05; for survival percentage of nude mice: male, BALB/c-nu/nu, mouse, in vivo, 5 weeks
Procedure: Figure 4 DZG inhibited cell proliferation and angiogenesis in vivo using PLS10 cells xenograft model. Mice were subcutaneously injected with PLS10 cells and treated two times per week with Cur or DZG (30 mg/kg body weight) for a period of 5 weeks. Tumor volume was measured twice a week and at the end of the study (a). The tumor masses were collected, sectioned and analyzed by immunohistochemistry to detect the Ki67-labeling index (b), % TUNEL (Terminal deoxynucleotidyl transferase dUTP nick end labeling)-positive cells (c) and % of the vessel area (d). Data presented in bar diagrams represent the mean ± S.E of eight mice in the control and nine mice in the treatment groups. ** p < 0.01 vs. control (one-way ANOVA, Dunnett’s multiple comparisons test, tested groups vs. control group).
The in vivo antitumor activity of DZG or Cur was examined using five-week-old male BALB/c-nu/nu mice. Mice were randomly divided into 3 groups, with up to 8 or 9 mice per group. The PLS10 cells (5.0 × 10^5) were subcutaneously injected into each mouse. The treatments were initiated 2 days after PLS10 cells injections, at which point, mice received 50% DMSO in normal saline solution (NSS) (vehicle control) at 30 mg/kg body weight of Cur or DZG via i.p. injection two times a week for five weeks. The body weight of each mouse was measured twice a week during the experiment. At week 5 of the experiment, mice were euthanized, and primary tumors and organs, such as lungs, liver, kidneys and lymph nodes, were removed and fixed in 10% buffered formalin. The tumor volume of each mouse was measured and calculated according to the following formulation: 0.52 × (axis1 × axis2 × axis3). A section of the primary tumor, lung, liver, and kidney specimens were collected and fixed in 10% buffered formalin. Tissue sections of the primary tumors and organs were stained with H&E.
The paraffin-embedded samples were sectioned and stained with rabbit monoclonal anti-Ki67 (SP6; Acris Antibodies GmbH, Herford, Germany) and rabbit polyclonal anti-CD31 antibodies (Abcam, Cambridge, UK) and sequentially stained with an anti-rabbit secondary antibody and avidin-biotin complex. The binding complexes were then visualized with diamino-benzidine. Subsequently, the sections were then counterstained lightly with hematoxylin for microscopic examination. The number of Ki67-staining cells for a minimum of 1000 cells was counted to determine the labeling index. For quantitative analysis of the vessel area, CD31-positive areas per the total area section were determined under microscopy (BZ-9000).
The paraffin-embedded samples were sectioned, and the degree of apoptosis in the tumor tissue was determined using a TUNEL assay (In situ Apoptosis Detection Kit; Takara Bio Inc., Ohtsu, Japan). The TUNEL assay was performed according to the manufacturer’s instructions. The number of TUNEL-labeled cells in a minimum of 1000 cells was counted in order to establish the labeling index.

[3] = 30 mg/kg i.p. two times a week for five weeks

SMILES	G1 phase cell population ([1]; Cur 20 µM) [%]	Body Weights at the end of the experiment [2, 3]	Organ Weights, Kidneys [2, 3]	Organ Weights, Livers [2, 3]	Ki67-labeling index in tumor sections [2, 3] [%]	tumor volume [2, 3] [cm^3]	CD31-positive areas in tumors (angiogenesis) [2, 3]	survival percentage of nude mice [2] [%]	G1 phase cell population ([1]; DZG 150 µM) [%]	G2/M phase cell population ([1]; DZG 150 µM) [%]	G1 phase cell population ([1]; DZG 200 µM) [%]	G2/M phase cell population ([1]; DZG 200 µM) [%]	apoptotic cells (TUNEL-positive) in tumor sections ([2]; 30 mg/kg i.p. two times a week for five weeks, control 7%) [%]
COc1cc(/C=C/C(=O)CC(=O)/C=C/c2ccc(O)c(OC)c2)ccc1O [Cur, Curcumin]	46	26.71 ± 1.26	0.40 ± 0.03	1.67 ± 0.10	62	38	significantly reduced	100					
COc1cc(/C=C/C(C)=O)ccc1O [DZG, (E)-4-(4-hydroxy-3-methoxyphenyl)-but-3-en-2-one]		27.12 ± 1.00	0.39 ± 0.03	1.60 ± 0.09	59	24	significantly reduced	100	43	39	53	31	10

Source: article PMC7356390, “Dehydrozingerone, a Curcumin Analog, as a Potential Anti-Prostate Cancer Inhibitor In Vitro and In Vivo” (Molecules, 2020)
